Test results taken from patent US20090029992A1, “SUBSTITUTED PYRAZOLE COMPOUNDS” (priority 2007, published 2009).

Tests used:
[1] = biological target: T1, N-terminal His6-tagged recombinant human KDR, residues 790-end (Homo sapiens, UniProt P35968); assay: KDR kinase inhibition assay (33P-ATP filter assay); assay type: biochemical
T1 construct: recombinant human KDR, residues 790-end; His6 (N); purchased Upstate USA Inc, 706 Forest Street, Charlottesville, Va
Procedure: (§1) Compounds were assayed for KDR kinase inhibitory activity using N-terminal His6-tagged recombinant human KDR, residues 790-end (Upstate USA Inc, 706 Forest Street, Charlottesville, Va.). Serial dilutions of compound were assayed in a final reaction volume of 25 μL by incubating a solution of the above KDR kinase (5-10 mU), 8 mM MOPS (3-(N-morpholino) propanesulfonic acid) pH 7.0, 0.2 mM EDTA (ethylenediamine tetracetic acid), 0.33 mg/mL myelin basic protein (Upstate USA Inc, 706 Forest Street, Charlottesville, Va.), and 10 mM magnesium acetate and [γ-^33P-ATP] (specific activity of about 500 cpm/μmol, concentration as required). The reaction was initiated by the addition of the magnesium acetate and [γ-^33P-ATP] mixture. After incubation for 40 minutes at room temperature, the reaction was stopped by the addition of 5 μL of a 3% phosphoric acid solution. A 10 μL aliquote of the reaction was then spotted onto a P30 filtermat (PerkinElmer, Wellesley, Mass.) and washed three times for five minutes in 75 mM phosphoric acid and once in methanol prior to drying and scintillation counting. Inhibition of KDR activity was determined by comparison to assays that contained no inhibitor.

[2] = biological target: T2, N-terminal His-tagged human Src (Homo sapiens, UniProt P12931); assay: Src kinase inhibition assay (33P-ATP filter assay); assay type: biochemical
T2 construct: His (N); purchased Upstate USA Inc, 706 Forest Street, Charlottesville, Va
Procedure: as §1, with “Src” for “KDR”, “His-tagged” for “His6-tagged recombinant”, “Src” for “KDR, residues 790-end”, “250 μM amino acid sequence KVEKIGEGTYGVVYK” for “0.33 mg/mL myelin basic protein”

[3] = biological target: T3, recombinant Aurora A (Homo sapiens, UniProt O14965); assay: Aurora A (Aurora 2) inhibition assay, Z'-Lyte kinase assay; assay type: biochemical; conditions: ATP 10 μM, 1 h
T3 construct: purchased Upstate, Lake Placid, N.Y
T3 sequence (O14965 1-403): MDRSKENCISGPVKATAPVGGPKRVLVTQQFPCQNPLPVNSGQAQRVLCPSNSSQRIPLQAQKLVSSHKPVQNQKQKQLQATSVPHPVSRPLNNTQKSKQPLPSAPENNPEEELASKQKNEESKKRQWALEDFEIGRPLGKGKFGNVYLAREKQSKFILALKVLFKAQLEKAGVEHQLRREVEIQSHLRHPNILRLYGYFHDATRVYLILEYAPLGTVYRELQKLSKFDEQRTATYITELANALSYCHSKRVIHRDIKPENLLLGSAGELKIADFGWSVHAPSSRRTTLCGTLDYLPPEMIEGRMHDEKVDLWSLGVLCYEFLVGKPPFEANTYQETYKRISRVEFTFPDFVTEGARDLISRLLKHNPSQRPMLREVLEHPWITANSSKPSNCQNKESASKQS
Procedure: Compounds were tested for their potency against recombinant Aurora A (Upstate, Lake Placid, N.Y.) using the PanVera Z′-Lyte kinase assay kit—Ser/Thr 1 peptide (Invitrogen, Carlsbad, Calif.). Assays were carried out in kinase assay buffer (50 mM HEPES, pH 7.5, 10 mM MgCl2, 5 mM EGTA, 0.05% Brij-35, 2 mM DTT). Test compounds were initially dissolved in DMSO at 100× the highest tested concentration, then serially diluted to 4× test concentrations in kinase assay buffer. Next, Aurora A (final concentration 200-500 ng/mL), Z′-Lyte Ser/Thr 1 peptide (final concentration 2 μM) and ATP (final concentration 10 μM) were added according to the manufacturer's instructions. Assays were carried out in half-area 96-well white polystyrene assay plates (Corning, Corning, N.Y.) in a final volume of 20 μl. The reaction was allowed to proceed for 1 h at room temperature in the dark, at which point the development reagent and stop reagent were added according to the manufacturer's instructions. Coumarin (Ex. 400 nm, Em. 465 nm) and fluorescein (Ex. 400 nm, Em. 565 nm) fluorescence values were measured on a SpectraFluor Plus plate reader (Tecan, Durham, N.C.). The emission ratio (coumarin/fluorescein) was determined and used to calculate the percent phosphorylation for each well. Wells containing substrate but no kinase and wells containing a phosphopeptide control were used to set 0% and 100% phosphorylation values, respectively. Typically 20-40% of the substrate was phosphorylated in wells without inhibitor. Dose-response curves of relative Aurora A activity vs. inhibitor concentration were plotted with Grafit (Erithacus Software, Horley, Surrey, UK).

[4] = test system: HCT116 cells; assay: Whole cell cytotoxicity assay, Sulforhodamine B; assay type: cell-based; conditions: Homo sapiens, HCT-116; HCT116, 96 hours incubation, SRB; read-out: IC50 values in this assay (HCT116 cell growth)
Procedure: Human tumor-derived cell lines, HCT116 or MCF7 (ATCC) were plated in a 96 well plate in DMEM containing 10% fetal bovine serum and 2 mM L-glutamine at a density of 500 HCT116 cells or 1,000 MCF7 cells per well and incubated at 37° C., 5% CO2, for 24 hours prior to the addition of experimental compounds. Compounds were added using the dilution series indicated to duplicate plates and the cells were incubated in media plus compound for 96 hours. An additional plate was fixed in 10% TCA at the time of the addition of compound to provide a measurement of the cell population at time zero, the time of drug addition. Following the 96 hour incubation, cells were fixed in situ by gently aspirating off the culture media and then adding 50 ul of ice cold 10% TCA per well and incubation at 4° C. for 60 minutes. The plates were washed with tap water five times and allowed to air dry for 5 minute. 50 ul of a 0.4% (w/v) Sulforhodamine B solution in 1% (v/v) acetic acid was added per well and the cells were incubated for 30 minutes at room temperature. Following staining, plates were washed four times with 1% acetic acid to remove any unbound dye and then allowed to air dry for 5 minutes. The stain was solubilized with 100 ul of 10 mM Tris pH 10.5 per well and placed on an orbital rotator for 5 minutes. The absorbance was read at 570 nm. Percentage growth was calculated using the absorbance readings from the time zero plate (Tz) and the dilution series plate […] which included a column of cells grown in media without compound as a control (C) using the formulas:
[(Ti−Tz)/(C−Tz)]×100 for concentrations for which Ti>/=Tz
[(Ti−Tz)/Tz]×100 for concentrations for which Ti<Tz.
Three dose response parameters were calculated for each experimental agent. Growth inhibition of 50% (GI50) was calculated from [(Ti−Tz)/(C−Tz)]×100=50, which was the drug concentration resulting in a 50% reduction in the net protein increase (as measured by SRB staining) in control cells during the drug incubation. The drug concentration resulting in total growth inhibition (TGI) was calculated from Ti=Tz. The LC50 (concentration of drug resulting in a 50% reduction in the measured protein at the end of the drug treatment as compared to that at the beginning) indicating a net loss of cells following treatment ws calculated from [(Ti−Tz)/Tz]×100=−50. Values are calculated for each of these three parameters if the level of activity was reached; however, if the effect was not reached or was exceeded, the value for that parameter is expressed as greater or less than the maximum or minimum concentration tested.

[5] = biological target: T4, N-terminal GST-tagged recombinant human Flt3, residues 564-end (Homo sapiens, UniProt P36888); assay: Flt3 kinase inhibition assay (33P-ATP filter assay); assay type: biochemical; conditions: 40 minutes at room temperature
T4 construct: recombinant human Flt3, residues 564-end; GST (N); purchased Upstate USA Inc, 706 Forest Street, Charlottesville, Va
T4 sequence (P36888 564-993 limits assumed): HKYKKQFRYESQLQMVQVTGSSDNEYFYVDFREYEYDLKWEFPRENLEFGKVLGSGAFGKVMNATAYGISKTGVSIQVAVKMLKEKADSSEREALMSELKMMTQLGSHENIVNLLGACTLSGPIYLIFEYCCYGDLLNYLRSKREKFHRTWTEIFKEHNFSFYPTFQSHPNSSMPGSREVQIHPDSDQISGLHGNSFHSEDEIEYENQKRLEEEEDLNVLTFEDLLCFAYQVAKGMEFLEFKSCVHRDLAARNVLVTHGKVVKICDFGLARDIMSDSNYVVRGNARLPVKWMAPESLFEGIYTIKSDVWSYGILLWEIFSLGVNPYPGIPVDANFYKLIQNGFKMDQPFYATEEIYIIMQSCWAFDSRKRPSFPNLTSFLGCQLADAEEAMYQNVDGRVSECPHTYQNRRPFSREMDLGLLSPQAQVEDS
Procedure: as §1, with “Flt3” for “KDR”, “GST-tagged” for “His6-tagged”, “Flt3,” for “KDR,”, “564-end” for “790-end”, “50 μM amino acid sequence EAIYAAPFAKKK” for “0.33 mg/mL myelin basic protein”

[6] = group with IC50 greater than 100 nM

T1 sequence (P35968 790-1356 limits assumed): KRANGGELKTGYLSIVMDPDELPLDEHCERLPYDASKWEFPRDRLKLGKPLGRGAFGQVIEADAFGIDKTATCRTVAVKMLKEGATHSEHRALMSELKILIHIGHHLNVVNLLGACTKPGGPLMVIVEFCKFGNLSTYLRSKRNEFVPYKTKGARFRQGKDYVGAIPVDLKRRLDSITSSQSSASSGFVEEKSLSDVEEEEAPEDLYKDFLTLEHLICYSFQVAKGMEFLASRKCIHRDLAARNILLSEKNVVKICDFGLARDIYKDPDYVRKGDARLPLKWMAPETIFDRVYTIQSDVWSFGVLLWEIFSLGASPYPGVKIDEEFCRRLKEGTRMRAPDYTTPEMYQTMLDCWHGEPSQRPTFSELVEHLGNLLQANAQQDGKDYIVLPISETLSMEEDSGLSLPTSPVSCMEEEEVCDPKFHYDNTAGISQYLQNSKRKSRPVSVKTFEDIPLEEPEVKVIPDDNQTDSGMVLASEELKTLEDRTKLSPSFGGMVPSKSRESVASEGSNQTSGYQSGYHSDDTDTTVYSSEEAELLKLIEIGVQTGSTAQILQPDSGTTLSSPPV
T2 sequence (P12931 whole entry): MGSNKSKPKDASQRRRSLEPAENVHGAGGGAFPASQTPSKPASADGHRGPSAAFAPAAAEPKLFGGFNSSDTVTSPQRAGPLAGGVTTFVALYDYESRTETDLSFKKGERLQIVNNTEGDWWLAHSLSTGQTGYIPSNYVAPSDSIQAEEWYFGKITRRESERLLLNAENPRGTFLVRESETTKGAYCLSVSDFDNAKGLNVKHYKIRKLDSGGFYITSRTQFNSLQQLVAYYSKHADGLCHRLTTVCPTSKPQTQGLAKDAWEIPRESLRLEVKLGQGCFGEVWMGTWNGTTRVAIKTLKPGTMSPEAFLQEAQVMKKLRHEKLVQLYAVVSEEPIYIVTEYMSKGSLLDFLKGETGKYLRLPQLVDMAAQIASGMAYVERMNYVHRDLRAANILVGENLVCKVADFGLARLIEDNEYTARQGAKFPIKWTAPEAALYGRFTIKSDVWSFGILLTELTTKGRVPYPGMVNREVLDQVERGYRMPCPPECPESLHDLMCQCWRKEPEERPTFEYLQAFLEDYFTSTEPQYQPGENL

| Compound | IC50 [1, 6] [µM] | IC50 [2, 6] [µM] | IC50 [3] [µM] | IC50 [3, 6] [µM] | IC50 ([2]; 40 minutes at room temperature) [µM] | IC50 [5] [µM] | IC50 ([1]; 40 minutes at room temperature) [µM] | IC50 [4] [µM] |
| --- | --- | --- | --- | --- | --- | --- | --- | --- |
| Cc1cc(Nc2cc(NC3CCOCC3)nc(-c3cccc4c3OCCO4)n2)n[nH]1 [Compound 129] | ≤ 1 | ≤ 1 |  | ≤ 1 |  | ≤ 0.1 |  |  |
| Cc1cc(Nc2cc(N3CCN(C)CC3)nc(-c3cccc(O)c3)n2)n[nH]1 [Example 161, 3-(4-(5-methyl-1H-pyrazol-3-ylamino)-6-(4-methylpiperazin-1-yl)pyrimidin-2-yl)phenol] |  |  | ≤ 0.1 |  | ≤ 0.1 | ≤ 0.1 | ≤ 0.1 |  |
| CC(=O)Nc1cccc(-c2nc(Nc3cc(C)[nH]n3)cc(N3CCN(C)CC3)n2)c1 [Example 167, N-(3-(4-(5-methyl-1H-pyrazol-3-ylamino)-6-(4-methylpiperazin-1-yl)pyrimidin-2-yl)phenyl)acetamide] |  |  | ≤ 0.1 |  | ≤ 0.1 | ≤ 0.1 | ≤ 0.1 |  |
| COCCN(C)c1cc(Nc2cc(C)[nH]n2)nc(-c2cccc(C)c2C)n1 [Example 181, 2-(2,3-dimethylphenyl)-N^4-(2-methoxyethyl)-N^4-methyl-N^6-(5-methyl-1H-pyrazol-3-yl)pyrimidine-4,6-diamine] | ≤ 1 | ≤ 1 |  | ≤ 1 |  | ≤ 0.1 |  |  |

Further lines, with some results ahead:

| IC50 [1, 6] [µM] | IC50 [2, 6] [µM] | IC50 [3] [µM] | IC50 [3, 6] [µM] | IC50 ([2]; 40 minutes at room temperature) [µM] | IC50 [5] [µM] | IC50 ([1]; 40 minutes at room temperature) [µM] | Compound | IC50 [4] [µM] |
| --- | --- | --- | --- | --- | --- | --- | --- | --- |
| ≤ 1 | ≤ 1 | ≤ 0.1 |  |  |  |  | Cc1cc(Nc2cc(NC3CCOCC3)nc(-c3cccc(Cl)c3)n2)n[nH]1 [Compound 23, 2-(3-chlorophenyl)-N^4-(5-methyl-1H-pyrazol-3-yl)-N^6-(tetrahydro-2H-pyran-4-yl)pyrimidine-4,6-diamine] | 1 to 10 |
| ≤ 1 | ≤ 1 |  | ≤ 1 |  |  |  | Cc1cc(Nc2cc(NC3CCOCC3)nc(-c3ccccc3Cl)n2)n[nH]1 [Compound 24, 2-(2-chlorophenyl)-N^4-(5-methyl-1H-pyrazol-3-yl)-N^6-(tetrahydro-2H-pyran-4-yl)pyrimidine-4,6-diamine] |  |
| ≤ 1 |  | ≤ 0.1 |  | ≤ 0.1 |  |  | COc1ccc(-c2nc(Nc3cc(C)[nH]n3)cc(NC3CCOCC3)n2)cc1 [Compound 28, 2-(4-methoxyphenyl)-N^4-(5-methyl-1H-pyrazol-3-yl)-N^6-(tetrahydro-2H-pyran-4-yl)pyrimidine-4,6-diamine] | 1 to 10 |
|  | ≤ 1 |  | ≤ 1 |  | ≤ 0.1 | ≤ 0.1 | Cc1cc(Nc2cc(NC3CCOCC3)nc(-c3cccc(C)c3C)n2)n[nH]1 [Example 180, 2-(2,3-dimethylphenyl)-N^4-(5-methyl-1H-pyrazol-3-yl)-N^6-(tetrahydro-2H-pyran-4-yl)pyrimidine-4,6-diamine] |  |
| ≤ 1 | ≤ 1 |  | ≤ 1 |  | ≤ 0.1 |  | Cc1ccc(C)c(-c2nc(Nc3cc(C)[nH]n3)cc(NC3CCOCC3)n2)c1 [Example 206, 2-(2,5-dimethylphenyl)-N^4-(5-methyl-1H-pyrazol-3-yl)-N^6-(tetrahydro-2H-pyran-4-yl)pyrimidine-4,6-diamine] |  |
